Reference: patent US20040266766A1, “Selective urokinase inhibitors” (Wilex AG, priority 2001, published 2004)
pKi: −log10 of the molar value. Where a name gives a salt, the structure may show the parent alone. Read-outs that look alike come from different tables or passages of the source. Values belong to the compound of their own block, whether it stands above or below them.

Legend:
[1] = target: T1, urokinase (uPA) (Homo sapiens, UniProt P00749); test: In vitro inhibition of urokinase (Ki according to Dixon, chromogenic substrate); assay type: biochemical
T1 construct: purchased Calbiochem-Novabiochem GmbH, Bad Soden, Germany
Protocol: In order to determine the inhibitory activity, 200 μl Tris buffer (0.05 mol/l containing the inhibitor, 0.154 mol/l NaCl, pH 8.0), 25 μl substrate (Pefachrome uPA, Pefachrome PL or Pefabloc TH in H2O; Pentapharm Ltd, Basle, Switzerland) and 50 μl urokinase (Calbiochem-Novabiochem GmbH, Bad Soden, Germany) or another appropriate protease e.g. plasmin, thrombin or FXa are incubated for 10 minutes at 30° C. After ca. 30 minutes and 30 cycles the absorption is determined at 405 nm by means of a microplate reader (Mediators PHL, Aureon Biosystems, Vienna, Austria). The Ki values were determined according to Dixon by linear regression using a computer program.

[2] = Oral bioavailability and plasma kinetics in mice (serum concentration); assay type: in vivo, Balb/c mice; conditions: mouse; for concentration at 20 min / concentration at 40 min / concentration at 60 min: female, Balb/c, serum, po, read-out: c in the serum 1st analysis; for concentration at 20 min: sample at 20 minutes; for concentration at 40 min: sample at 40 minutes; for concentration at 60 min: sample at 60 minutes; for c in the serum 1st analysis: 10 mg/kg i.v.
[3] = summary table, read-out: Ki uPA

SMILES: N=C(N)Nc1ccc(CNC(=O)CNC(=O)C(CO)NC(=O)Cc2ccc(O)c(O)c2)cc1 (stereo not drawn) [WX-571, 3,4-Dihydroxyphenyl-acetyl-(D)-Ser-Gly-(4-guanidinobenzyl)amide hydrochloride]
pKi ([1]; read-out: Ki uPA): 4.83

SMILES: N=C(N)Nc1ccc(CNC(=O)CNC(=O)C(CO)NC(=O)Nc2cccc(Cl)c2)cc1 (stereo not drawn) [WX-C292, 3-Chlorophenyl-aminocarbonyl-(D)-Ser-Gly-(4-guanidinobenzyl)amide hydrochloride]
Ki uPA [1]: no inh. *)

SMILES: N=C(N)Nc1ccc(CNC(=O)CNC(=O)C(CO)NC(=O)Nc2ccccc2Cl)cc1 (stereo not drawn) [WX-C304, 2-Chlorophenyl-aminocarbonyl-(D)-Ser-Gly-(4-guanidinobenzyl)amide hydrochloride]
Ki uPA [1]: no inh. *)

SMILES: COc1ccc(NC(=O)NC(CO)C(=O)NCC(=O)NCc2ccc(NC(=N)N)cc2)cc1 (stereo not drawn) [WX-C306, 4-Methoxyphenyl-aminocarbonyl-(D)-Ser-Gly-(4-guanidinobenzyl)amide hydrochloride]
pKi ([1]; read-out: Ki uPA): 5.39

SMILES: COc1cc(NC(=O)NC(CO)C(=O)NCC(=O)NCc2ccc(NC(=N)N)cc2)cc(OC)c1OC (stereo not drawn) [WX-C308, 3,4,5-Tri-methoxyphenyl-aminocarbonyl-(D)-Ser-Gly-(4-guanidinobenzyl)amide hydrochloride]
pKi ([1]; read-out: Ki uPA): < 4.70

SMILES: CC(=O)c1cccc(NC(=O)NC(CO)C(=O)NCC(=O)NCc2ccc(NC(=N)N)cc2)c1 (stereo not drawn) [WX-C314, 3-Acetylphenyl-aminocarbonyl-(D)-Ser-Gly-(4-guanidinobenzyl)amide hydrochloride]
Ki uPA [1]: no inh. *)

SMILES: N=C(N)Nc1ccc(CNC(=O)CNC(=O)C(CO)NC(=O)NC23CC4CC(CC(C4)C2)C3)cc1 (stereo not drawn) [WX-C320, 1-Adamantyl-aminocarbonyl-(D)-Ser-Gly-(4-guanidinobenzyl)amide hydrochloride]
pKi ([1]; read-out: Ki uPA): < 4.70

SMILES: N=C(N)Nc1ccc(CNC(=O)CNC(=O)C(CO)NC(=O)Nc2ccccc2Br)cc1 (stereo not drawn) [WX-C322, 2-Bromophenyl-aminocarbonyl-(D)-Ser-Gly-(4-guanidinobenzyl)amide hydrochloride]
pKi ([1]; read-out: Ki uPA): < 4.70

SMILES: N=C(N)Nc1ccc(CNC(=O)CNC(=O)C(CO)NC(=O)Nc2ccc3c(c2)OCCO3)cc1 (stereo not drawn) [WX-C326, 2,3-Dihydro-1,4-benzodioxin-6-yl-aminocarbonyl-(D)-Ser-Gly-(4-guanidinobenzyl)amide hydrochloride]
pKi ([1]; read-out: Ki uPA): < 4.70

SMILES: N=C(N)Nc1ccc(CNC(=O)CNC(=O)C(CO)NC(=O)Nc2cccc3ccccc23)cc1 (stereo not drawn) [WX-C328, 1-Naphthyl-aminocarbonyl-(D)-Ser-Gly-(4-guanidinobenzyl)amide hydrochloride]
pKi ([1]; read-out: Ki uPA): < 4.70

SMILES: CC(=O)c1ccc(NC(=O)NC(CO)C(=O)NCC(=O)NCc2ccc(NC(=N)N)cc2)cc1 (stereo not drawn) [WX-C330, 4-Acetylphenyl-aminocarbonyl-(D)-Ser-Gly-(4-guanidinobenzyl)amide hydrochloride]
pKi ([1]; read-out: Ki uPA): < 4.70

SMILES: N=C(N)Nc1ccc(CNC(=O)CNC(=O)C(CO)NC(=O)Nc2ccc3c(c2)OCO3)cc1 (stereo not drawn) [WX-C332, 3,4-Methylenedioxyphenyl-aminocarbonyl-(D)-Ser-Gly-(4-guanidinobenzyl)amide hydrochloride]
pKi ([1]; read-out: Ki uPA): < 4.70

SMILES: N=C(N)Nc1ccc(CNC(=O)CNC(=O)C(CO)NC(=O)Nc2cccc(Cl)c2Cl)cc1 (stereo not drawn) [WX-C334, 2,3-Dichlorophenyl-aminocarbonyl-(D)-Ser-Gly-(4-guanidinobenzyl)amide hydrochloride]
pKi ([1]; read-out: Ki uPA): < 4.70

SMILES: CCOC(=O)c1ccc(NC(=O)NC(CO)C(=O)NCC(=O)NCc2ccc(NC(=N)N)cc2)cc1 (stereo not drawn) [WX-C336, 4-Ethyloxycarbonylphenyl-aminocarbonyl-(D)-Ser-Gly-(4-guanidinobenzyl)amide hydrochloride]
pKi ([1]; read-out: Ki uPA): 4.88

SMILES: N=C(N)Nc1ccc(CNC(=O)CNC(=O)C(CO)NC(=O)Nc2ccc(Br)cc2Br)cc1 (stereo not drawn) [WX-C338, 2,4-Dibromophenyl-aminocarbonyl-(D)-Ser-Gly-(4-guanidinobenzyl)amide hydrochloride]
pKi ([1]; read-out: Ki uPA): < 4.70

SMILES: N=C(N)Nc1ccc(CNC(=O)CNC(=O)C(CO)NC(=O)Nc2ccc([N+](=O)[O-])cc2)cc1 (stereo not drawn) [WX-C342, 4-Nitrophenyl-aminocarbonyl-(D)-Ser-Gly-(4-guanidinobenzyl)amide hydrochloride]
pKi ([1]; read-out: Ki uPA): 5.31

Now from value to compound:

pKi ([1]; read-out: Ki uPA): 5.68
SMILES: N=C(N)Nc1ccc(NNC(=O)CNC(=O)[C@@H](CO)NS(=O)(=O)Cc2ccccc2)cc1 [WX-600, N-[N′-guanidino-phenyl)-hydrazinocarbonyl-methyl]-3-hydroxy-2-phenyl-methanesulfonylamino-propionamide hydrochloride]

pKi ([1]; read-out: Ki uPA): 6.35
SMILES: CC1(C)C2CCC1(CS(=O)(=O)NC(CO)C(=O)NCC(=O)NCc1ccc(NC(=N)N)cc1)C(=O)C2 (stereo not drawn) [WX-C296, (−)-Camphor-10-sulfonyl-(D)-Ser-Gly-4-guanidinobenzyl)amide hydrochloride]

pKi ([1]; read-out: Ki uPA): 6.80
pKi [1, 3]: 6.80
concentration at 20 min ([2]; 30 mg/kg, 30 mg/kg oral): 200 ng/mL
concentration at 40 min ([2]; 30 mg/kg, 30 mg/kg oral): 400 ng/mL
concentration at 60 min ([2]; 30 mg/kg, 30 mg/kg oral): 100 ng/mL
concentration at 20 min ([2]; 300 mg/kg, 300 mg/kg oral): 17000 ng/mL
concentration at 40 min ([2]; 300 mg/kg, 300 mg/kg oral): 10700 ng/mL
concentration at 60 min ([2]; 300 mg/kg, 300 mg/kg oral): 7000 ng/mL
c in the serum 1st analysis ([2]; time of sample collection 0): 66.2 µg/mL
c in the serum 1st analysis ([2]; time of sample collection 10): 18.3 µg/mL
c in the serum 1st analysis ([2]; time of sample collection 30): 2.1 µg/mL
SMILES: CC1(C)C2CCC1(CS(=O)(=O)NC(CO)C(=O)NCC(=O)NCc1ccc(NC(=N)N)cc1)C(=O)C2 (stereo not drawn) [WX-C298, (+)-Camphor-10-sulfonyl-(D)-Ser-Gly-(4-guanidinobenzyl)amide hydrochloride]

pKi ([1]; list of test substances of Example 17, read-out: Ki human uPA): 6.57
pKi ([1]; read-out: Ki uPA): 6.57
pKi [1, 3]: 6.57
concentration at 20 min ([2]; 30 mg/kg, 30 mg/kg oral): 200 ng/mL
concentration at 40 min ([2]; 30 mg/kg, 30 mg/kg oral): 200 ng/mL
concentration at 60 min ([2]; 30 mg/kg, 30 mg/kg oral): 200 ng/mL
concentration at 20 min ([2]; 300 mg/kg, 300 mg/kg oral): 1500 ng/mL
concentration at 40 min ([2]; 300 mg/kg, 300 mg/kg oral): 4600 ng/mL
concentration at 60 min ([2]; 300 mg/kg, 300 mg/kg oral): 600 ng/mL
c in the serum 1st analysis ([2]; time of sample collection 0): 94.4 µg/mL
c in the serum 1st analysis ([2]; time of sample collection 10): 11.0 µg/mL
c in the serum 1st analysis ([2]; time of sample collection 30): 1.3 µg/mL
SMILES: CCCCS(=O)(=O)NC(CO)C(=O)NCC(=O)NCc1ccc(NC(=N)N)cc1 (stereo not drawn) [WX-C300, n-Butyl-sulfonyl-(D)-Ser-Gly-(4-guanidinobenzyl)amide hydrochloride]

pKi ([1]; read-out: Ki uPA): 6.30
SMILES: CCCCCCCCS(=O)(=O)NC(CO)C(=O)NCC(=O)NCc1ccc(NC(=N)N)cc1 (stereo not drawn) [WX-C302, n-Octyl-sulfonyl-(D)-Ser-Gly-(4-guanidinobenzyl)amide hydrochloride]

pKi ([1]; read-out: Ki uPA): 5.70
SMILES: N=C(N)Nc1ccc(CNC(=O)CNC(=O)C(CO)NC(=O)Nc2ccc(Oc3ccccc3)cc2)cc1 (stereo not drawn) [WX-C310, 4-Phenoxyphenyl-aminocarbonyl-(D)-Ser-Gly-(4-guanidinobenzyl)amide hydrochloride]

pKi ([1]; read-out: Ki uPA): 5.85
SMILES: CCOC(=O)c1cccc(NC(=O)NC(CO)C(=O)NCC(=O)NCc2ccc(NC(=N)N)cc2)c1 (stereo not drawn) [WX-C312, 3-Ethoxycarbonylphenyl-aminocarbonyl-(D)-Ser-Gly-(4-guanidinobenzyl)amide hydrochloride]

pKi ([1]; read-out: Ki uPA): 6.30
SMILES: N=C(N)Nc1ccc(CNC(=O)CNC(=O)C(CNC(=O)OCc2ccccc2)NS(=O)(=O)Cc2ccccc2)cc1 (stereo not shown) [WX-M5, benzylsulfonyl-(D)-Dap(Z)-Gly-(4-guanidinobenzyl)amide hydrochloride]

pKi ([1]; read-out: Ki uPA): 6.82
SMILES: N=C(N)Nc1ccc(CNC(=O)CNC(=O)C(CN)NS(=O)(=O)Cc2ccccc2)cc1 (stereo not drawn) [WX-M6, Benzylsulfonyl-(D)-Dap-Gly-(4-guanidinobenzyl)amide bis-hydrochloride]
